Data as given in publication PMC8097242, “Galectin-4 N-Terminal Domain: Binding Preferences Toward A and B Antigens With Different Peripheral Core Presentations” (Frontiers in Chemistry, 2021).

Columns and labels:
Format in all cases: binding
[1] = molecular target: T1, N-terminal CRD of hGalectin-4 (Gal-4N) (Homo sapiens, UniProt P56470); assay: Isothermal titration calorimetry (ITC)
T1 construct: N-terminal CRD of hGalectin-4 (amino acids 1–150, including an additional C-terminus His-Tag); His-Tag (C, cleaved yes); made in house; host or cells: E. coli BL21 (pET29b)
T1 sequence (P56470 1-150): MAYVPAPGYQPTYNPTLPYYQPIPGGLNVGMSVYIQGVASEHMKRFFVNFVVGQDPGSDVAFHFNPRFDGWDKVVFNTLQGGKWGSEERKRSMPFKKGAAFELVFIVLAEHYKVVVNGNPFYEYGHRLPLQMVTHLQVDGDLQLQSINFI
Experimental: Isothermal titration calorimetry experiments were performed using the MicroCal PEAQ-ITC calorimeter (Malvern Panalytical, Malvern, United Kingdom). Samples containing 100–200 μM of Gal-4N in PBS (50 mM sodium phosphate, pH 7.4, 300 mM NaCl) were titrated with stocks of 3–10 mM in PBS of glycans 4, 5, 7, 8, 9, and 11. During the automated experiment, small aliquots (2–3 μL) of the sugar stocks were added to the cell containing the lectin. Curve fitting to a single binding site model was performed with the MicroCal Origin 7 software.
Isothermal titratrion calorimetry (ITC). Isothermal Titration Calorimetry experiments were performed using MicroCal PEAQ-ITC calorimeter. Samples containing 100-200 µM of Gal-4N in PBS (50 mM sodium phosphate pH 7.4, 300 mM NaCl) were titrated with stocks of 3-10 mM in PBS of glycans A type 1, A type 2, A type 6, B type 1, B type 2 and B type 6. During the automated experiment, small aliquots (2-3 µL) of the sugar stocks were added to the cell containing the lectin. The association constants and the thermodynamic profile of the binding was calculated from the fitting of the titration data to a single binding site model.

[2] = molecular target: T1, N-terminal CRD of hGalectin-4 (Gal-4N); assay: 1H Saturation Transfer Difference (STD) NMR epitope mapping
Experimental: ^1H-saturation transfer difference NMR spectra were acquired for mixtures of Gal-4N (50 μM) with a 50-fold excess of ligand. Protein aromatic irradiation afforded the best STD intensities and thus these are discussed henceforth. The STD NMR spectra were very similar among the different ligands with respect to both the observed glycan protons and their intensities. […] Severe proton overlapping precluded a full comparison among ligands, but key isolated ^1H NMR resonance signals permitted to highlight evident differences.
All the STD NMR experiments were performed using an 800 MHz Bruker spectrometer with a cryoprobe (Bruker, Billerica, MA, United States). The samples were prepared in the corresponding deuterated buffer. The temperature was 288 K for every experiment. An amount of 50 μM of the lectin with 50 equivalents of the ligand was employed for every experiment except for lactose, for which a 1:70 ratio was used. The STD spectra were acquired with 1,024 scans, 2 s of saturation time using a train of 50 ms Gaussian-shaped pulses, and 3 s of relaxation delay. The spin-lock filter applied to remove the signals of the lectin was set at 40 ms. The on-resonance frequency was set for the aromatic region at 6.58 ppm, while the off-resonance frequency was set at 100 ppm.
Supplementary Table S1. Relative STD-AF (Amplification factor) and STD percentage of each non overlapping proton of each ligand.

[3] = molecular target: T1, N-terminal CRD of hGalectin-4 (Gal-4N); assay: 1H-15N HSQC NMR-based titrations (chemical shift perturbation) of 15N-labeled Gal-4N
Experimental: The molecular recognition event was also analyzed from the perspective of the lectin. Thus, a chemical shift perturbation (CSP) analysis of the changes produced in the ^1H-^15N HSQC spectra recorded for ^15N-labeled Gal-4N upon addition of the different ligands was carried out. This analysis required the NH backbone NMR assignment of the lectin signals, following well-established triple resonance 3D NMR methods (see Materials and methods and Supplementary Information). The assignment protocol allowed assigning 80% of the NH backbone resonances. In addition to the ligands shown in Scheme 1, the corresponding non-fucosylated analogs and the H antigens (devoid of the terminal Gal/GalNAc moieties, see Supplementary Information), as well as lactose, were also employed. Thus, a full comparative analysis on the monosaccharide-specific effects on the lectin CSP was achieved.
The total volume for the NMR samples was 500/μl. The lectin was in phosphate-buffered saline (50 mM sodium phosphate, 150 mM NaCl, pH 7.4), either in D2O or 90:10 H2O:D2O depending on the NMR experiment. The pH was adjusted with the required amount of NaOH and HCl or NaOD and DCl.
experiments were acquired using an 800 MHz Bruker spectrometer with a cryoprobe (Bruker, Billerica, MA, United States). The samples were prepared using 50 μM of the ^15N-labeled lectin in the corresponding buffer in a 90:10 H2O:D2O ratio. The experiments were performed at 298 K. Six to nine points were recorded for each ligand and CSP and KD were calculated using CcpNmr Analysis 2.4.2.

CC1OC(OC2C(OC3C(CO)OC(O)C(O)C3O)OC(CO)C(O)C2OC2OC(CO)C(O)C(O)C2O)C(O)C(O)C1O (centres unmarked) [B type-6 (tetra)]
-TΔS (kcal mol^–1) (ITC) [1]: 6.4 kcal mol^–1
binding enthalpy [1]: -12.3 kcal/mol
ΔG (kcal mol^–1) (ITC) [1]: −5.9 kcal mol^–1
ΔH (kcal mol^–1) (ITC) [1]: −12.3 kcal mol^–1
increased affinity of type-6 vs corresponding type-2 antigen ([1]; Glc vs GlcNAc at reducing end, β1–4 linked): two-fold
Kd ([1]; PBS pH 7.4, single binding site model): 51 µM
fold difference in affinity of the best binder ([1]; among tetrasaccharides of Figure 6 (ITC)): 5 fold
STD% ([2]; 1H-residue H1 Fuc): 28%
STD-AF ([2]; 1H-residue H1 Fuc): 0.0105
STD% ([2]; 1H-residue H1Galα): 74%
STD-AF ([2]; 1H-residue H1Galα): 0.0276
STD% ([2]; 1H-residue H1Galβ): 80%
STD-AF ([2]; 1H-residue H1Galβ): 0.0298
STD% ([2]; 1H-residue H2Galα): 38%
STD-AF ([2]; 1H-residue H2Galα): 0.0142
STD% ([2]; 1H-residue H2Galβ): 34%
STD-AF ([2]; 1H-residue H2Galβ): 0.0129
STD% ([2]; 1H-residue H2Glca / H2Glcα): 39%
STD-AF ([2]; 1H-residue H2Glca / H2Glcα): 0.0146
STD% ([2]; 1H-residue H2Glcb / H2Glcβ): 36%
STD-AF ([2]; 1H-residue H2Glcb / H2Glcβ): 0.0135
STD% ([2]; 1H-residue H3Galβ): 29%
STD-AF ([2]; 1H-residue H3Galβ): 0.0108
STD% ([2]; 1H-residue H3Glcb / H3Glcβ): 46%
STD-AF ([2]; 1H-residue H3Glcb / H3Glcβ): 0.0172
STD% ([2]; 1H-residue H4Galβ): 82%
STD-AF ([2]; 1H-residue H4Galβ): 0.0307
STD% ([2]; 1H-residue H5Galβ): 100%
STD-AF ([2]; 1H-residue H5Galβ): 0.0374
STD% ([2]; 1H-residue H5Glcβ): 44%
STD-AF ([2]; 1H-residue H5Glcβ): 0.0163
STD% ([2]; 1H-residue MetFuc): 20%
STD-AF ([2]; 1H-residue MetFuc): 0.0074
fold range of NMR-based binding affinities, best vs worse binder ([3]; B-type 6 vs A-type 4): 20 fold
Kd ([3]; HSQC NMR-based titration, 50 μM 15N-labeled lectin, 298 K, read-out: KD (μM) (NMR)): 60 µM
